Assays:
in vitro = details: for P450 enzyme catalyzing the metabolism: microsomes; for Vmax for metabolism: Table 1 Vmax 1
Description: Mohutsky M, Wrighton S, Ring B. In vitro metabolism: subcellular fractions. In: Pearson P, Wienkers L, editors. Handbook of drug metabolism. New York: Informa Healthcare; 2009. pp. 445-464. […] The incubation was conducted at various time points 0-60 min at 37° C. At the end of incubation, the reactions were quenched, processed, and analyzed by LC-MS/MS.

[1] = Concentration in blood circulation after dosing
[2] = target: T1, progesterone receptor (PR) (Homo sapiens, UniProt P06401); assay: PRE-luciferase reporter assay in 293T and WMPY cells transfected with PR; format: cell-based; details: 100 nM
T1 construct: expressed in transfected cells; host or cells: 293T (human embryonic kidney cells) and WMPY (prostatic stromal cell line)
T1 sequence (P06401 1-933): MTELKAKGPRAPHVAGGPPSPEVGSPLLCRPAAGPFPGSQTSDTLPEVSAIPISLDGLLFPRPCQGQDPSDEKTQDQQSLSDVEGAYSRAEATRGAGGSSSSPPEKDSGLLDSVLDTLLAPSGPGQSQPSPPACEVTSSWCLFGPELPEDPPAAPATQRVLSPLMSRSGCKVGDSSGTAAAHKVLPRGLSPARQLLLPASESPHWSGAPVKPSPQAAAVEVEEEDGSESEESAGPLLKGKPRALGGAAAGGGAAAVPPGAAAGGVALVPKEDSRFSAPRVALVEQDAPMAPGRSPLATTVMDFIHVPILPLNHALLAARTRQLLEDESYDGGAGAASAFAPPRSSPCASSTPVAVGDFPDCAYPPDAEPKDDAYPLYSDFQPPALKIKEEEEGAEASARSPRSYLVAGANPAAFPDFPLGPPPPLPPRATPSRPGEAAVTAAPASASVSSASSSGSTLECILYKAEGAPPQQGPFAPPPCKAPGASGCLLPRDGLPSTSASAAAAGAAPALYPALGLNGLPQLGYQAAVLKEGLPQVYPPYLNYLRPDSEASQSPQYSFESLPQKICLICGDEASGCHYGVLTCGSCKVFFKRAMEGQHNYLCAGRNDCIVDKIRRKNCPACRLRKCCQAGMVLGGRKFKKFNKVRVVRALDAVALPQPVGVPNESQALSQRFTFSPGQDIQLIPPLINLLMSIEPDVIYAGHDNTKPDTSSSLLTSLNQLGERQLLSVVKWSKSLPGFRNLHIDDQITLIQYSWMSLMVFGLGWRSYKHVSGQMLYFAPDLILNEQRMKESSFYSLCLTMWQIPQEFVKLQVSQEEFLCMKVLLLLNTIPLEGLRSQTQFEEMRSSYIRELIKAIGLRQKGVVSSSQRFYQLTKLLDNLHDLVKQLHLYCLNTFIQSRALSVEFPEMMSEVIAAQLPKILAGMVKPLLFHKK
Description: 293T and WMPY cells were transfected with progesterone receptor (PR) and PRE-luciferase reporter. […] Experiments were repeated in triplicate. […] Because of the metabolic stability of M1 compared to ONA, a blood circulation of 100 nM M1 can be achieved after dosing M1 at 1 mg.

[3] = Metabolite profile by LC-MS in pooled urine of chimeric mice with humanized liver after repeated oral onapristone; format: in vivo; details: onapristone 30 mg/kg/day, D11
Description: Metabolites were identified using liquid chromatography-mass spectrometry (LC-MS) and mass spectroscopy on pooled plasma, urine, and liver samples. Twenty-seven metabolites were identified in urine samples across dose and sampling time (e.g., 0-24 hours of dosing for each time point).
Mice with humanized livers were generated as described by Meuleman et al., Hepatology 2005, 41 (4):847-856. This humanized liver model is routinely used to assess the metabolism and toxicities of drugs. Kamimura H, Nakada N, Suzuki K, et al. Assessment of chimeric mice with humanized liver as a tool for predicting circulating human metabolites. Drug Metab Pharmacokinet 2010;25(3):223-235. Two weeks following birth, mice were transplanted with primary hepatocytes isolated from the liver of a donor (purchased from BD Genetest). All animals were housed and kept under standard animal protocols. Animals also were observed during the experiment for signs of illness, abnormal behavior and appearance, and any sign of toxicity, or mortality. Animals were treated orally by gavage with 0, 10, and 30 mg/kg of drug once a day up to 31 days. At the end of treatments, blood samples, urine, and liver were collected and processed for LC-MS/MS metabolite identification and profiling. […]

[4] = format: in vitro ADME, human
Excerpt: In: Pearson P, Wienkers L, editors. Handbook of drug metabolism. New York: Informa Healthcare; 2009. pp. 445-464.

| SMILES | P450 enzyme catalyzing the metabolism (in vitro; both, human) | Vmax 1 (in vitro; female human liver microsomes) [pmol/min/mg] | Vmax 2 (in vitro; female human liver microsomes) [pmol/min/mg] | Vmax for metabolism (in vitro; females) | Km (in vitro; human, Km 1) [µM] | Km (in vitro; human, Km 2) [µM] | Vmax 1 (in vitro; male human liver microsomes) [pmol/min/mg] | Vmax 2 (in vitro; male human liver microsomes) [pmol/min/mg] | Km (in vitro; male, human, Km 1) [µM] | Km (in vitro; male, human, Km 2) [µM] | Vmax for metabolism (in vitro; males) | concentration that can be achieved in blood circulation ([1]; after dosing M1 at 1 mg, inferred from metabolic stability of M1) [nM] | concentration achieved in blood circulation ([1]; after dosing onapristone at 10 mg QD) [nM] | inhibition of PR transcriptional activity [2] | P450 enzyme catalyzing the metabolism (in vitro) | metabolite detected by LC-MS in urine [3] | number of metabolites formed in vitro [4] |
| --- | --- | --- | --- | --- | --- | --- | --- | --- | --- | --- | --- | --- | --- | --- | --- | --- | --- |
| CNc1ccc([C@H]2C[C@]3(C)[C@@H](CC[C@]3(O)CCCO)[C@@H]3CCC4=CC(=O)CCC4=C32)cc1 [Metabolite M1, (8S, 11R,13R,14S,17S)-17-hydroxy-17-(3-hydroxypropyl)-13-methyl-11-(4-(methylamino)phenyl)-6,7,8,11,12,13,14,15,16,17-decahydro-1H-cyclopenta[a]phenanthren-3(2H)-one] | CYP3A and CYP2C | 106 | 738 | 106 pmol/min/mg microsomal protein | 0.75 | 175 | 72 | 748 | 0.96 | 129 | 72 pmol/min/mg microsomal protein | 100 | 10 | fully inhibit |  |  |  |
| CN(C)c1ccc([C@H]2C[C@]3(C)[C@@H](CC[C@]3(O)CCCO)[C@@H]3CCC4=CC(=O)CCC4=C32)cc1 [onapristone, Onapristone, reference compound] |  | 1517 | 8715 | 1517 pmol/min/mg microsomal protein |  |  | 1292 | 7213 |  |  | 1292 pmol/min/mg microsomal protein |  |  | fully inhibit | CYP3A | Ls | nine |

— patent publication US20170266204A1 (ARNO THERAPEUTICS, INC., priority 2016, published 2017)
